Laboratory results published in patent publication US20120328696A1, “ANTI-PARKINSONIAN COMPOUND ACETYLSALICYLIC ACID MALTOL ESTER” (Hutecs Korea Pharmaceutical Co., Ltd., priority 2008, published 2012).

Columns and labels:
Format in all cases: in vivo
PKCδ [1] = assay: Striatal PKCδ expression after MA (western blot); conditions: MA 8 mg/kg i.p. x4, GPx-1 (+/+) and (−/−) mice; for effect on MA-induced striatal PKCδ expression: p.o., AME 25 or 50, EBS 10 or 20, rottlerin 10 or 20 mg/kg
Experimental: (§1) The mice received four times of MA (8 mg/kg, ip) or saline as a 2 hr-time interval. Chemicals (AME, EBS, and PKC inhibitors) were administrated for 5 consecutive days (twice daily), and were given 2 times at 4 hr and 30 min before the first MA injection as shown in the experimental schedule. Animals were sacrificed at 4 hrs and 3 days after the final MA administration.
Tissues were homogenized in lysis buffer, containing 200 mM Tris HCl (pH 6.8), 1% SDS, 5 mM EGTA (ethylene glycol tetraacetic acid), 5 mM EDTA (ethylenediaminetetraacetic acid), 10% glycerol, 1× phosphatase inhibitor cocktail I, 1× protease inhibitor cocktail. Lysate was centrifuged at 12,000×g for 30 min and supernatant fraction was used for Western blot analysis. […] And then, membranes were incubated with HRP-conjugated secondary anti-rabbit IgG (1:1000, GE healthcare, Piscataway, N.J., USA), anti-mouse IgG (1:1000, Sigma) or anti-goat IgG (1:1000, Sigma) for 2 h. Subsequent visualization was performed using enhanced chemiluminescence system (ECL Plus®, GE healthcare).

p53 = assay: Striatal p53 expression after MA (western blot); conditions: p.o.; AME 50, EBS 20, rottlerin 20 mg/kg; MA 8 mg/kg i.p. x4; GPx-1 (+/+) and (−/−) mice
Experimental: as §1
(§2) The western blot assays was performed as described previously (Kim et al., 2003). Tissues were homogenized in lysis buffer, containing 200 mM Tris HCl (pH 6.8), 1% SDS, 5 mM EGTA (ethylene glycol tetraacetic acid), 5 mM EDTA (ethylenediaminetetraacetic acid), 10% glycerol, 1× phosphatase inhibitor cocktail I, 1× protease inhibitor cocktail. Lysate was centrifuged at 12,000×g for 30 min and supernatant fraction was used for Western blot analysis. Proteins (20-50 ug/lane) were separated by 6%, 8%, 10% or 15% sodium dodecyl sulfate-polyacrylamide gel electrophoresis and transferred onto the PVDF membranes. Following transfer, the membranes were preincubated with 5% non-fat milk and incubated overnight at 4° C. with primary antibody against β-actin (1:50000, Sigma, St. Louis, Mo., USA), TH (1:5000, Chemicon), TH phosphor-Ser 19 (1:1000, Chemicon,), TH phosphor-Ser 31 (1:500, Chemicon), TH phosphor-Ser 40 (1:500, Chemicon), F4/80 (1:500, Serotec), GPx1 (1:2500, AbFrontier), PKC (1:5000, Santa Cruz biotechnology, Santa Cruz, Calif., USA), p53 (1:5000, Cell signaling, Beverly, Mass., USA), MDM2 (1:1000, BD Pharmingen, San Jose, Calif., USA), MDM2 phospho-Ser 166 (1:1000, cell signaling), BDNF (1:500, Chemicon), GDNF (1:250, Santa Cruz), COX-2 (1:2000, Cayman, Ann Arbor, MC, USA), IL-6 (1:2000, Abcam, Cambridge, Mass., USA), TNF-a (1:1000, R&D Systems, Mckinley place NE, NM, USA), IFN-γ (1:500, Chemicon) or Iba-1 (1:500, Wako, Osaka, Japan). And then, membranes were incubated with HRP-conjugated secondary anti-rabbit IgG (1:1000, GE healthcare, Piscataway, N.J., USA), anti-mouse IgG (1:1000, Sigma) or anti-goat IgG (1:1000, Sigma) for 2 h. […]

[2] = system: brain-derived neurotrophic factor (BDNF); assay: Striatal BDNF expression after MA (western blot); conditions: p.o.; AME 50, EBS 20, rottlerin 20 mg/kg; MA 8 mg/kg i.p. x4; GPx-1 (+/+) and (−/−) mice
Experimental: as §1, §2

[3] = system: Iba-1 (a marker of microgliosis); assay: Iba-1 expression after MA (western blot); conditions: p.o.; AME 50, EBS 20, rottlerin 20 mg/kg; MA 8 mg/kg i.p. x4; GPx-1 (+/+) and (−/−) mice
Experimental: as §1, §2

interleukin (IL)-6 = assay: IL-6 expression after MA (western blot); conditions: p.o.; AME 50, EBS 20, rottlerin 20 mg/kg; MA 8 mg/kg i.p. x4; GPx-1 (+/+) and (−/−) mice
Experimental: as §1, §2

tyrosine hydroxylase = assay: Striatal and nigral TH-like immunoreactivity after MA (immunocytochemistry); conditions: p.o., AME 50, EBS 20, rottlerin 20 mg/kg, MA 8 mg/kg i.p. x4, GPx-1 (+/+) and (−/−) mice; for effect on MA-induced reduction in striatal TH-IR: striatum; for effect on MA-induced nigral reduction in TH-IR: substantia nigra pars compacta
Experimental: as §1
(§3) Animals were sacrificed at 4 hours and 3 days after the last MA injection. They were anesthetized with 60% urethane and perfused transcardially with 50 ml of 50 mM phosphate buffered saline (PBS), followed by 50 ml of a mixture of 4% paraformaldehyde in PBS. The rate of perfusion was 50 ml/min. The brains were removed, post-fixed at 4° C. for 24 h in the same fixative and then cryoprotected in 30% sucrose in PBS. The brains were cut on a horizontal sliding microstome into 40 μm transverse free-floading sections (Kim et al., 1999).
(§4) The immunocytochemistry was performed as described previously (Kim et al., 2000a, b). Briefly, prior to incubation with the primary antibodies, sections were preincubated with 0.3% hydrogen peroxide in PBS for 30 min (to block endogenous peroxidase activity), then in PBS containing 0.4% Triton X-100 for 20 min and 1% normal serum for 20 min. The sections were then incubated for 48 h at 4° C. in primary antibody against tyrosine hydroxylase (1:500, Chemicon, Termecula, Calif., USA), GPx1 (1:500, AbFrontier, Seoul, Korea), PKC (1:200, Santa Cruz biotechnology INC, CA, USA) or F4/80 (1:50, Serotec, Raleigh, N.C., USA). The sections were further incubated with secondary biotinylated antisera (1:1000 dilution; Vector, Brulingame, Calif.) for 1 hr, and immersed in avidin-biotin-peroxidase complex (ABC Elite kit, Vector) for 1 hr. Sections were always washed three times with PBS (pH 7.4) between each incubation step. 3,3′-diaminobenzidine (DAB) was used as a chromogen.

interferon (IFN)-γ = assay: IFN-γ expression after MA (western blot); conditions: p.o.; AME 50, EBS 20, rottlerin 20 mg/kg; MA 8 mg/kg i.p. x4; GPx-1 (+/+) and (−/−) mice
Experimental: as §1, §2

phospho MDM2-ser 166 = assay: Striatal phospho-MDM2 expression after MA (western blot); conditions: p.o.; AME 50, EBS 20, rottlerin 20 mg/kg; MA 8 mg/kg i.p. x4; GPx-1 (+/+) and (−/−) mice
Experimental: as §1, §2

cyclooxygenase (COX)-2 = assay: COX-2 expression after MA (western blot); conditions: p.o.; AME 50, EBS 20, rottlerin 20 mg/kg; MA 8 mg/kg i.p. x4; GPx-1 (+/+) and (−/−) mice
Experimental: as §1, §2

PKCδ [4] = assay: Striatal PKCδ-like immunoreactivity after MA (immunocytochemistry); conditions: p.o.; AME 50, EBS 20, rottlerin 20 mg/kg; MA 8 mg/kg i.p. x4; GPx-1 (+/+) and (−/−) mice
Experimental: as §1
as §3, with “PBS.” for “PBS. The brains were cut on a horizontal sliding microstome into 40 μm transverse free-floading sections (Kim et al., 1999).”
as §4

[5] = system: glial cell line-derived neurotrophic factor (GDNF); assay: Striatal GDNF expression after MA (western blot); conditions: p.o.; AME 50, EBS 20, rottlerin 20 mg/kg; MA 8 mg/kg i.p. x4; GPx-1 (+/+) and (−/−) mice
Experimental: as §1, §2

SMILES | effect on MA-induced striatal PKCδ expression (PKCδ [1]) | effect on MA-induced increase in striatal p53 expression (p53) | effect on MA-induced reduction in BDNF expression [2] | effect on MA-induced increase in Iba-1 expression [3] | effect on MA-induced increase in IL-6 expression (interleukin (IL)-6) | effect on MA-induced reduction in striatal TH-IR (tyrosine hydroxylase) | effect on MA-induced nigral reduction in TH-IR (tyrosine hydroxylase) | effect on MA-induced increase in IFN-γ expression (interferon (IFN)-γ) | effect on MA-induced decrease in phospho-MDM2 expression (phospho MDM2-ser 166) | effect on MA-induced increase in COX-2 expression (cyclooxygenase (COX)-2) | effect on MA-induced increase in striatal PKCδ-IR (PKCδ [4]) | effect on MA-induced reduction in GDNF expression [5] | effect on MA-induced increase in striatal PKCδ expression (PKCδ [1]; intra-striatal)
O=c1c2ccccc2[se]n1-c1ccccc1 [EBS, 2-phenyl-1,2-benzisoselenazol-3(2H)-one] | significantly reduced MA-induced the PKCδ- and cleaved PKCδ-expressions in a dose-related manner | significantly inhibited MA-induced increase in p53 expression | significantly attenuated these reductions | significantly and consistently attenuating effects | significantly and consistently attenuating effects | attenuated this reduction in striatal TH-IR | significantly attenuated MA-induced nigral reduction in TH-IR | significantly and consistently attenuating effects | significantly attenuated | significantly and consistently attenuating effects | significantly attenuated MA-induced increase in striatal PKCδ-IR | significantly attenuated these reductions | 
CC(=O)Oc1ccccc1C(=O)Oc1c(C)occc1=O [AME, 3-(2-methyl-4-pyronyl)-2-acetyloxybenzoate] | significantly reduced MA-induced the PKCδ- and cleaved PKCδ-expressions in a dose-related manner | significantly inhibited MA-induced increase in p53 expression | significantly attenuated these reductions | significantly and consistently attenuating effects | significantly and consistently attenuating effects | attenuated this reduction in striatal TH-IR | significantly attenuated MA-induced nigral reduction in TH-IR | significantly and consistently attenuating effects | significantly attenuated | significantly and consistently attenuating effects | significantly attenuated MA-induced increase in striatal PKCδ-IR | significantly attenuated these reductions | 
CC(=O)c1c(O)c(C)c(O)c(Cc2c(O)c3c(c(C(=O)/C=C/c4ccccc4)c2O)OC(C)(C)C=C3)c1O [rottlerin] | significantly reduced MA-induced the PKCδ- and cleaved PKCδ-expressions in a dose-related manner | significantly inhibited MA-induced increase in p53 expression | significantly attenuated these reductions | significantly and consistently attenuating effects | significantly and consistently attenuating effects | attenuated this reduction in striatal TH-IR | significantly attenuated MA-induced nigral reduction in TH-IR | significantly and consistently attenuating effects | significantly attenuated | significantly and consistently attenuating effects | significantly attenuated MA-induced increase in striatal PKCδ-IR | significantly attenuated these reductions | attenuated the MA-induced increases in PKCδ expressions in a dose-dependent manner
